In patent US20260193672A1, “INDUCIBLE CELL SUICIDE SWITCHES AND THEIR USE IN CELL AND GENE THERAPIES” (The General Hospital Corporation, priority 2022, published 2026):

Columns and labels:
[1] = system: Jurkat cells; assay: Loss of BFP+ cells with three degron tags fused to ICAD; assay type: cell-based; details: 48 hours of exposure to controller drug; SMASH tag, dTAG or IKZF3 degron fused to ICAD
Protocol: (§1) Unless otherwise indicated, cell death assays with Jurkat or primary human T cells were performed by 48 hour incubation with the relevant drug and flow cytometry analysis for the marker of transduction.
To determine whether the ICAD-degron CAD suicide switch design is generalizable to multiple degron systems, three different degron tags (SMASH, dTag, superdegron) were fused to ICAD to facilitate ICAD degradation.

[2] = system: Jurkat cells expressing the switch; assay: DNA damage assay (gamma-H2AX intracellular flow); assay type: cell-based
Excerpt: To determine whether promoter strength modifies ICADdegron-CAD suicide switch efficiency, Jurkat cells were transduced to express the ICAD-degron 2A CAD p.R11W suicide switch was expressed, driven by an EF1alpha or PGK promoter.

[3] = system: ICAD-degron/CAD suicide switch-positive primary human T cells; assay: Depletion of ICAD-degron/CAD suicide switch-positive T cells; assay type: cell-based; details: 1 uM lenalidomide treatment
Protocol: as §1
Control of CAR T cell function with a lenalidomide suicide switch was also evaluated.

[4] = system: NALM6 tumor cells; assay: Incucyte live cell imaging co-culture assay, tumor cell cytolysis; assay type: cell-based
Protocol: (§2) On day −1, tissue culture plates were coated with anti-CD71 antibody diluted in PBS. On day 0, the plates were washed with PBS and then Nalm6-luciferase-GFP cells were added to the coated plates. Four hours later, primary human CAR T cells were added at a 1:1 ratio with the Nalm6 cells. Plates were imaged every hour for at least 90 hours ([…] ZOOM, live-cell analysis system). Total green, red, and blue object areas were collected, indicative of GFP+ tumor and mCherry+/mTagBFP2+ CAR and/or suicide switch T cell area.
Tumor cell cytolysis was evaluated by Incucyte live cell imaging co-culture assay with NALM6 tumor cells.
We also generated a tri-cistronic suicide switch CAR lentivector. The same Incucyte live cell imaging co-culture assay with NALM6 tumor cells and single lentivector ICAD-degron/CAD/CAR was performed in primary human T cells. […] With lenalidomide, anti-tumor cytolysis was prevented.

[5] = system: suicide switch CAR T cells; assay: Incucyte live cell imaging co-culture assay, CAR T cell proliferation; assay type: cell-based, human
Protocol: as §2
In summary, the suicide switch can be used to deplete CAR T cells (FIG. 6E).

[6] = system: cells transduced to express pairs of BCL-xL and variants of PUMA; assay: Growth and survival of cells expressing BCL-xL and PUMA variants fused to 913iK0; assay type: cell-based; details: BCL-xL and PUMA variants fused to E3 recruitment domain 913iK0
Protocol: Pairs of pro/anti-apoptotic proteins were evaluated for their ability to work as an effective suicide switch. BCL-xL and BIM transgene pairs were toxic to Jurkat cells transduced to express these lentiviruses, as assessed by total cell number 48 hours after high-titer transduction, see FIG. 1A. […] In this design, the goal was for the pro-apoptotic protein PUMA to bind endogenous anti-apoptotic proteins, and for drug-dependent recruitment to the E3 to result in anti-apoptotic protein ubiquitination, degradation, and cell death.

[7] = system: cells expressing ICAD-degron/CAD; assay: Cell depletion by ICAD-degron/CAD lenalidomide-inducible suicide switch (summary statement); assay type: cell-based; details: lenalidomide-induced, subtherapeutic lenalidomide concentrations
Protocol: as §1

[8] = system: primary human CAR T cells; assay: Competitive proliferation assay of suicide switch-transduced versus untransduced cells; assay type: cell-based; details: without lenalidomide
Excerpt: Cells were stimulated weekly with an equal number of irradiated K562 cells transduced to express CD3 and CD28 scFvs. Flow cytometry was used to enumerate the percentage of mTagBFP2+ cells on days 0, 7, and 14.

[9] = system: primary human T cells; assay: Cell depletion, CAD/ICAD versus iCasp9 suicide switch, head-to-head; assay type: cell-based; details: dose ranges of lenalidomide and AP1903, normalized to untreated cells
Protocol: as §1

[10] = system: Jurkat cells; assay: Competitive growth assay of modified lenalidomide suicide switches; assay type: cell-based; details: for cell viability, normalized fluorescence: in the absence of lenalidomide, normalized to % transduced on day 0
Excerpt: To assess whether further modification of CAD could further enhance the suicide switch, we performed structural modeling of CAD, identifying side chain interactions with R11 and W 11 in the mutant form.

[11] = system: primary human T cell; assay: Four-day growth assay; assay type: cell-based; details: compared with other CAD sequences and vector control
Protocol: To test whether variations in CAD modify the performance of CAD/ICAD suicide switch, a primary human T cell four-day growth assay was performed comparing vector control, and then three modifications of ICAD-degron 2A CAD expression, differentiated by the CAD sequences.

CC[C@H](C(=O)N1CCCC[C@H]1C(=O)O[C@H](CCc1ccc(OC)c(OC)c1)c1ccccc1OCC(=O)NCCCCCCOc1cccc2c1C(=O)N(C1CCC(=O)NC1=O)C2=O)c1cc(OC)c(OC)c(OC)c1 (stereo partly drawn) [dTAG-13, 1-[(2S)-1-Oxo-2-(3,4,5-trimethoxyphenyl)butyl]-(2S)-2-piperidinecarboxylate (1R)-3-(3,4-dimethoxyphenyl)-1-[2-[2-[[6-[[2-(2,6-dioxo-3-piperidinyl)-2,3-dihydro-1,3-dioxo-1H-isoindol-4-yl]oxy]hexyl]amino]-2-oxoethoxy]phenyl]propyl ester]
drug-dependent cell depletion (loss of BFP+ cells) [1]: allowed for drug-dependent cell depletion

Nc1nc(O)c2ncn(COC(CO)CO)c2n1 [ganciclovir]
drug-dependent cell depletion (loss of BFP+ cells) [1]: but not the SMASH tag, allowed for drug-dependent cell depletion

Nc1cccc2c1CN(C1CCC(=O)NC1=O)C2=O (stereo not drawn) [lenalidomide]
time in which DNA damage sensing occurred ([2]; gamma-H2AX, timecourse after 1000 nM lenalidomide addition): within one hour
depletion of suicide switch-positive primary human T cells [3]: successful depletion
effect on tumor cell depletion by suicide switch CAR T cells ([4]; 16 hour delayed lenalidomide, dual-vector CAR T cells): ablated tumor cell depletion
effect on tumor cell cytolysis by suicide switch CAR T cells ([4]; immediate lenalidomide, dual-vector CAR T cells): prevented tumor cell cytolysis
effect on anti-tumor cytolysis, single lentivector ICAD-degron/CAD/CAR T cells ([4]; with lenalidomide): prevented
time to depletion of the CAR T cells ([5]; after 16 hour delayed lenalidomide, without rebound): ≤ 24 h
effect on suicide switch CAR T cell expansion ([5]; immediate lenalidomide): prevented suicide switch CAR T cell expansion
drug-dependent cell depletion (loss of BFP+ cells) [1]: allowed for drug-dependent cell depletion
effect on growth and survival of cells [6]: did not alter the growth and survival
cell depletion [7]: > 90%

ICAD-degron 2A CAD p.R11W: multicistronic transgene: C-terminally degron-tagged human ICAD, 2A, human CAD p.R11W (SEQ ID NO: 19/20)
DNA damage response by promoter strength ([2]; Jurkat cells, EF1alpha promoter compared with PGK promoter): enhanced DNA damage response
T cell proliferation in competition with untransduced cells, compared with control [8]: comparable
cell killing compared with iCasp9 switch [9]: more complete cell killing
cell viability, normalized fluorescence [10]: improved cell viability
drug-independent cell fitness [11]: enhanced drug-independent cell fitness
cell depletion [7]: > 90%

ICAD-degron-CADp.R11A: suicide switch transgene with CAD p.R11A (SEQ ID NO: 23/24)
cell viability, normalized fluorescence [10]: improved cell viability

ICAD-degron-CADp.R11W/E68A: suicide switch transgene with CAD p.R11W/E68A (SEQ ID NO: 29/30)
cell viability, normalized fluorescence [10]: improved cell viability

ICAD-degron-CADp.R11W/K18A: suicide switch transgene with CAD p.R11W/K18A (SEQ ID NO: 27/28)
cell viability, normalized fluorescence [10]: improved cell viability
cell depletion ([10]; with 1 uM lenalidomide): efficient cell depletion
drug-independent competitive growth ([10]; without lenalidomide): most improved

ICAD-degron-CADp.Y49W: suicide switch transgene with CAD p.Y49W (SEQ ID NO: 25/26)
cell viability, normalized fluorescence [10]: improved cell viability
